In experiment [1] the target is α-Synuclein fibrils (Homo sapiens, UniProt P37840). Kind of experiment: Binding studies with α-Synuclein fibrils (fluorescence of unbound fraction). The settings on record: 5 μM α-Synuclein fibrils, 2 hours incubation; read-out: dissociation constant, Kd. Here is the method:
Different dilutions of Conjugate A liposomes or p-FTAA were added and mixed with 5 μM of α-Synuclein fibrils and incubated for 2 hours. The mixture was centrifuged at 21000 g for 5 mins. The supernatant was removed and assayed for fluorescence of p-FTAA that was unbound to the fibrils. Excitation of 405 nm and emission of 574 nm emission was used. A standard curve from known concentrations of liposomes or pFTAA was made. The bound fraction was calculated as the difference between the total pFTAA or pFTAA-liposomes that was incubated and the unbound fraction. […] A dissociation constant of 3 nM was determined for the p-FTAA molecule (FIG. 7B).

Experiment [2] deals with tau fibrils (phosphorylated tau-441 (2N4R)) (Homo sapiens, UniProt P10636). Kind of experiment: Binding studies with tau fibrils (fluorescence, no separation). The conditions noted are these: 0.85 μM tau fibrils, 2 hours; Ex 360 nm, Em 535 nm. The method, then:
Lyophilized tau-441 (2N4R) was dissolved in buffer containing 40 mM HEPES, 5 mM EGTA, 3 mM MgCl2, pH 7.5. Tau was phosphorylated with GSK-3b in the presence of 2 mM ATP at 30° C. for 40 hours. Tau was used at 30-75 μM concentration, and GSK-3b was used at 0.02-0.08 U/pmol of tau. SDS PAGE gel was run to confirm the phosphorylation of tau (FIG. 8).
To make fibrils, the phosphorylated tau was reacted with arachidonic acid (ARA). The p-tau was diluted in 10 mM HEPES, 1 mM EDTA, 5 mM DTT and 150 mM NaCl at pH-7.6 to final concentration of 32 μM and ARA at 37 times molar excess of tau was added. The mixture was incubated for 2 days at 37° C. for 2 days. Fresh DTT was supplemented daily. The oligomers formed were used as seeds for fibril formation. 8 μM of tau seeds were used to form fibrils with 30 μM p-tau in 10 mM HEPES, 1 mM EDTA, 5 mM DTT and 150 mM NaCl at pH-7.6. ARA was used at 37 times molar excess over p-tau monomer and incubated at 37° C. for 2 days. Fresh DTT was added every day.
Different dilutions of p-FTAA molecule were added and mixed with 0.85 μM of tau fibrils and incubated for 2 hours. The mixture was assayed as is without separation of bound and unbound fibrils. Excitation at 360 nm and emission at 535 nm was used for detection of p-FTAA binding to tau fibrils.

The values below come from US20200261605A1, “FUNCTIONALIZED LIPOSOMES FOR IMAGING MISFOLDED PROTEINS” (ALZECA BIOSCIENCES, LLC, priority 2019, published 2020).

The structures appear in SMILES notation.

Chain of tau fibrils (phosphorylated tau-441 (2N4R)) (P10636 1-441 isoform P10636-8): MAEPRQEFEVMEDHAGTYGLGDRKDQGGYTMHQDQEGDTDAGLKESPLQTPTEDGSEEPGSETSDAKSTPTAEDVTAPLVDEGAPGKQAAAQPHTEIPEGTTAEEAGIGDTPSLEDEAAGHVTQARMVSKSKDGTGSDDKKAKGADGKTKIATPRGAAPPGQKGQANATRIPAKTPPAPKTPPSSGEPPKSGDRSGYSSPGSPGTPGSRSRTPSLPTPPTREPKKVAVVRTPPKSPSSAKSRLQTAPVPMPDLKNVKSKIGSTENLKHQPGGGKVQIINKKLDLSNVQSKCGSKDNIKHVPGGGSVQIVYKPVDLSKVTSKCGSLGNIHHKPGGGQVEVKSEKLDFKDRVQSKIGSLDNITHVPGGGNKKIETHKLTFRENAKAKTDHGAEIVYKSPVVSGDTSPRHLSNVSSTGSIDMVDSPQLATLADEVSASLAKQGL

As to `O=C(O)Cc1cc(-c2ccc(C(=O)O)s2)sc1-c1ccc(-c2sc(-c3ccc(C(=O)O)s3)cc2CC(=O)O)s1` [p-FTAA, pentameric formyl thiophene acetic acid], the Kd in experiment [1] worked out at 3 nM. The “fluorescence with tau fibrils in comparison to p-FTAA only” value in experiment [2] is reported as “increase in fluorescence”.
